Test results as given in patent publication US4302448A, “Secretin preparations with intensified and protracted action, process for their manufacture, their use as well as dihydroxybenzoyl-L-tyrosine” (Hoechst Aktiengesellschaft, priority 1979, dated 1981).
Where a SMILES comes first, the peptide text is derived from it. Side-chain parts run from the residue outwards. [ ]: non-standard residue; d: D form. The star is where a group is joined. Cbz = O=C(OCc1ccccc1)*

System: Pancreatic juice secretion of the rat
Assay: Pancreatic juice secretion of the rat after subcutaneous administration of secretin with depot bodies
Format: in vivo
Settings: rat, subcutaneous, 5 CU/kg secretin + 10 mg depot body/animal; for Δ% vs. control (percentage by which the pancreatic secretion is above the basal secretion after 5 hours): control=100%, measure of depot effect; for Rel. Intensity of effect over 5 hours (total pancreatic juice secretion over 5 hours as compared with control): control (0.9% of NaCl)=1
Method: Secretin preparations for subcutaneous application which contained the depot bodies specified in the following Table were tested in animal experiments. In the experimental procedure chosen, 5 to 8 male rats weighing 300 to 500 g each are administered subcutaneously 5 CU/kg of secretin (CU means clinical unit) and 10 mg of the depot body to be tested each in aqueous solution or suspension.
The animals remain without food for 18 hours prior to the test, but they are given water ad libitum. Under urethane anaesthesia (5 ml/kg i.m. of 25% urethane) the abdomen is opened by median section after tracheotomy, and the pylorus is ligated. The ductus choledochus is tied off in its proximal part near the porta hepatis, and the bile is led into the duodenum via a polyethylene tube of a diameter of […]. A cannula or catheter is inserted into the distal part of the bile duct, into which the numerous pancreatic ducts open, immediately before it opens into the duodenum, and the volume of the secretion running off is measured in 60 minute intervals. Following a preliminary run of 60 minutes the preparations are administered.
L means the compound known from literature and characterized by the melting point, optionally UV, IR or NMR. A to C relate to the preparation according to Example 1, process A to C. These compounds were characterized by ultimate analysis. The third column indicates the percentage by which the pancreatic secretion is above the basal secretion after 5 hours (calculated on the control=100%). This value is a measure for the depot effect of the depot body tested. Column 4 indicates the intensification of the secretin effect, with the total pancreatic juice secretion having been given over 5 hours as compared with the control (0.9% of NaCl)=1.

| Compound | Δ% vs. control (percentage by which the pancreatic secretion is above the basal secretion after 5 hours) | Rel. Intensity of effect over 5 hours (total pancreatic juice secretion over 5 hours as compared with control) |
| --- | --- | --- |
| Bis-(2-carboxybenzoyl-L-tyrosine)-diaminoethane | 48% | 6.3 |
| O=C(N[C@@H](Cc1ccc(O)cc1)C(=O)O)OCc1ccccc1 [Benzyloxycarbonyl-L-tyrosine] | 7% | 5.9 |
| COC(=O)c1ccc(O)cc1 [4-Hydroxy-benzoic acid-methyl-ester] | 15% | 5.3 |
| Oc1cccc2cccnc12 [8-Hydroxyquinoline] | 37% | 4.7 |
| COC(=O)[C@H](Cc1ccc(O)cc1)NC(=O)c1ccc(O)cc1O [2,4-Dihydroxybenzoyl-L-tyrosine-methyl ester] | 70% | 7.8 |
| CC(=O)c1ccc(O)cc1O [2,4-Dihydroxy-acetophenone] | 70% | 6.1 |
| CC(=O)c1cccc(O)c1 [3-Hydroxy-acetophene] | 54% | 9.0 |
| Bis-(3,5-dihydroxybenzoyl)-1,4-diaminobutane | 85% | 7.4 |
| O=C(N[C@@H](Cc1ccc(O)cc1)C(=O)NCCCC[C@@H](NC(=O)[C@H](Cc1ccc(O)cc1)NC(=O)OCc1ccccc1)C(=O)O)OCc1ccccc1 [Nα,Nε-Bis-(benzyloxycarbonyl-L-tyrosyl)-D-lysine] (Cbz-Tyr-[dK]([Tyr-Cbz])-OH) | 13% | 1.5 |
| NC(=O)c1ccccc1O [2-Hydroxy-benzoic acid amide] | 51% | 8.0 |
| Bis-(3,5-dihydroxybenzoyl)-diaminoethane | 79% | 6.1 |
| Bis-phloretin phosphate | 56% | 2.5 |
| CC(=O)c1ccc(O)cc1 [4-Hydroxyacetophenone] | 43% | 8.1 |
| Bis-(2,4-dihydroxybenzoyl-L-tyrosine)-diaminoethane | 82% | 6.0 |
| O=C(c1ccc(O)cc1O)c1ccc(O)cc1O [2,2'-4,4'-Tetrahydroxybenzophenone] | 58% | 4.8 |
| O=C(c1ccccc1)c1ccccc1O [2-Hydroxy-benzophenone] | 74% | 7.2 |
| O=C(N[C@@H](Cc1ccc(O)cc1)C(=O)NCCCC[C@H](NC(=O)[C@H](Cc1ccc(O)cc1)NC(=O)c1cc(O)cc(O)c1)C(=O)N(CCO)CCO)c1cc(O)cc(O)c1 [Nα,Nε-Bis(3,5-dihydroxybenzoyl-L-tyrosyl)-L-lysine-diethanol-amide] | 86% | 8.8 |

| Compound | Δ% vs. control (percentage by which the pancreatic secretion is above the basal secretion after 5 hours) | Rel. Intensity of effect over 5 hours (total pancreatic juice secretion over 5 hours as compared with control) |
| --- | --- | --- |
| O=C(O)c1cc(O)c(O)c(O)c1 [3,4,5-Trihydroxybenzoic acid] | 28% | 5.0 |
| O=C(NC(Cc1ccc(O)cc1)C(=O)N(CCO)CCO)c1cc(O)cc(O)c1 [3,5-Dihydroxybenzoyl-L-tyrosine-diethanolamide] | 76% | 7.6 |
| Oc1cccc(O)c1 [Resorcinol] | 55% | 6.1 |
| OCc1ccc(O)cc1 [4-Hydroxy-benzyl alcohol] | 12% | 1.3 |
| Bis-(3-benzoylpropionyl-L-tyrosine)-diaminoethane | 60% | 3.7 |
| Oc1cc(O)cc(O)c1 [Phloroglucine] | 15% | 6.6 |
| Bis-(2,4-dihydroxybenzoyl)-1,4-diaminobutane | 83% | 6.7 |
| Oc1cccc(O)c1O [Pyrogallol] | 41% | 5.1 |
| O=C(O)c1cccc(O)c1 [3-Hydroxybenzoic acid] | 47% | 4.0 |
| O=C(O)c1cc(O)nc2ccccc12 [2-Hydroxy-quinoline-4-carboxylic acid] | 5% | 5.0 |
| O=C(NCCN(CCN(CCNC(=O)c1cc(O)cc(O)c1)C(=O)c1cc(O)cc(O)c1)C(=O)c1cc(O)cc(O)c1)c1cc(O)cc(O)c1 [Tetra-(3,5-dihydroxybenzoyl)-triethylene-tetramine] | 101% | 9.7 |
| O=C(N[C@@H](Cc1ccc(O)cc1)C(=O)NCCN(CCN(CCNC(=O)[C@H](Cc1ccc(O)cc1)NC(=O)c1cc(O)cc(O)c1)C(=O)[C@H](Cc1ccc(O)cc1)NC(=O)c1cc(O)cc(O)c1)C(=O)[C@H](Cc1ccc(O)cc1)NC(=O)c1cc(O)cc(O)c1)c1cc(O)cc(O)c1 [Tetra-(3,5-dihydroxybenzoyl-L-tyrosyl)-triethylene-tetramine] | 98% | 9.5 |
| O=C(NCCN(CCN(CCNC(=O)c1ccccc1O)C(=O)c1ccccc1O)C(=O)c1ccccc1O)c1ccccc1O [Tetra-(2-hydroxybenzoyl)-triethylene-tetramine] | 91% | 9.0 |
| O=C(N[C@@H](Cc1ccc(O)cc1)C(=O)N(CCO)CCO)c1ccc(O)cc1O [2,4-Dihydroxybenzoyl-L-tyrosine-diethanolamide] | 47% | 8.7 |
| O=C(NCc1ccccc1)c1ccc(O)cc1O [2,4-Dihydroxybenzoic acid-benzylamide] | 64% | 6.8 |
| CCCCNC(=O)[C@H](Cc1ccc(O)cc1)NC(=O)c1ccc(O)cc1O [2,4-Dihydroxybenzoyl-L-tyrosine-n-butylamide] | 87% | 8.7 |
